Earlier results as cited in patent US20130129668A1, “Diagnosis and treatment of arthritis using epigenetics” (The Regents of the University of California, priority 2011, published 2013).

How the values were obtained:
[1] = test system: FLS; conditions: FLS cultured in the presence of 5-azaC for 3 months
[2] = test system: T cells

## Nc1ncn([C@H]2C[C@H](O)[C@@H](CO)O2)c(=O)n1 [5-azaC, 5-aza-2′-deoxycytidine]
[1]
  expression of genes implicated in RA: increased expression of several genes
[2]
  autoreactivity: enhances autoreactivity
  expression of T cell genes (IFNα, IL-4, CD70, LFA-1): affects expression of many T cell genes
